Legend:
[1] = Pharmacokinetic profile in healthy human males; assay type: in vivo
Method: FIGURE 3 Inhibition of human lysyl oxidase‐like 2 (LOXL2) enzymatic activity by PXS‐5338 in clinical trials. (A) LOXL2 protein concentration in human serum is fairly constant over 24 h. Protein concentrations normalised to pre‐dose levels are plotted over time in healthy subjects treated with different doses (placebo, 100, 200 and 400 mg) of PXS‐5338. Mean ± SD with n = 6/time point. Phase 1 study with healthy male volunteers, ANZCTR ACTRN12617001444370. Legend of (A) also applies to (B) and (C). (B) Dose‐dependent inhibition of LOXL2 in plasma following a single oral dose of 100, 200 mg or 400 mg PXS‐5338. PXS‐5878/Simoa® platform used to measure the residual activity. Mean ± SD with n = 6/time point. (C) Pharmacokinetic (PK) profile of PXS‐5338 in healthy human males. […] (D) Correlation between LOXL2 protein concentration versus % inhibition. Activity data normalised to pre‐dose value.

rh LOXL2 = biological target: T1, rh LOXL2 (Homo sapiens, UniProt Q9Y4K0); test: Jump dilution assay, rh LOXL2; assay type: biochemical
T1 sequence (Q9Y4K0 26-774): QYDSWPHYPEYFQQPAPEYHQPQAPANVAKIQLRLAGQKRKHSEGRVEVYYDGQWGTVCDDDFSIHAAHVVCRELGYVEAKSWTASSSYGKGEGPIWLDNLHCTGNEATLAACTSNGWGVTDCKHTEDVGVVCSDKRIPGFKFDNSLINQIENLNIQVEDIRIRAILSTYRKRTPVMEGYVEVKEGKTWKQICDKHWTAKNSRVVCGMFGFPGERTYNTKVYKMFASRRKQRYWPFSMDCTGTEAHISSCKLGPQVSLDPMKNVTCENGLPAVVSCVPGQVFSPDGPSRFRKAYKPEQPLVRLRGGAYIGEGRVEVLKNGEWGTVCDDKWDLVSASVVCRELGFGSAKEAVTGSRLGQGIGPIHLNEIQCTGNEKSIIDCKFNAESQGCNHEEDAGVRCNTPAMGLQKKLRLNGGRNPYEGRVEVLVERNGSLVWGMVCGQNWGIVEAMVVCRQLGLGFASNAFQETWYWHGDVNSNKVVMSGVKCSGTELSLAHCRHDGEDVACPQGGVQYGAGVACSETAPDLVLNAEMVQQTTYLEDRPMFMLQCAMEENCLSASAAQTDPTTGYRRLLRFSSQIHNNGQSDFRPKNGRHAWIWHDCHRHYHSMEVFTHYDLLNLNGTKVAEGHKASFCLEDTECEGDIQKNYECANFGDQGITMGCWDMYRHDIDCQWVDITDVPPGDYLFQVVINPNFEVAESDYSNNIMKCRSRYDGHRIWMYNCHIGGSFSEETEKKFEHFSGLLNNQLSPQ
From the text: FIGURE 1 Characteristics of the activity‐based probe (ABP) PXS‐5878. (A) Chemical structure of PXS‐5878, with functional subunits denoted with different colours. The fluoroallylamine moiety (blue) was designed to interact with the lysine tyrosylquinone (LTQ) co‐factor within the lysyl oxidase active sites. An extended linker (green) was incorporated to provide optimal separation between the reactive functional group and the tag, avoiding unfavourable steric hindrance. Biotin was selected as a tag, with higher sensitivity found to be achieved using a double tag (red), resulting in PXS‐5878 as the preferred ABP. (B) Concentration‐dependent inhibition of recombinant human (rh) lysyl oxidase‐like 1‐4 (LOXL1‐4) and native bovine LOX in a standard Amplex Red assay with 30 min pre‐incubation; n = 3–4 independent experiments, standard error of mean (SEM). Native bovine LOX was used as a surrogate for human LOX as both enzymes have similar pharmacology for fluoroallylamines.[2], [9] (C) Irreversible nature of PXS‐5878 enzyme inhibition confirmed using a jump dilution assay. Enzyme (rh LOXL1, rh LOXL2 or LOXL3) was pre‐incubated with 10 × IC50 of PXS‐5878 for 30 min, then diluted 100x and remaining activity assessed by Amplex Red assay. […] Each value is an average of three experiments. (D) Schematic representation of the assay development to detect lysyl oxidase activity by PXS‐5878 using a direct enzyme‐linked assay with lysyl oxidases as the target analyte. HRP: horseradish peroxidase; TMB: 3,3′,5,5′‐tetramethylbenzidine, a chromogenic substrate. […]
For fluoroallylamine-based inhibitors, replacement of fluorine with hydrogen (leading to the corresponding des-fluoro structures) results in a drop in potency and a switch from irreversible to reversible inhibition. […] (B) For PXS-5878, removal of the fluoro moiety in a simplified analogue results in a significant drop in potency for LOXL2, meaning (ir)reversibility cannot be accurately measured.

Compound half-life in humans [1]: prolonged compound half‐life
Mode of inhibition (reversible/irreversible) of LOXL2 (rh LOXL2): irreversibly inhibits the enzyme
SMILES: CC(C)c1c(Cc2ccc(S(C)(=O)=O)nc2)c2ncccc2n1C/C(F)=C/CN [PXS‐5338]

From article PMC8571951, “An activity‐based bioprobe differentiates a novel small molecule inhibitor from a LOXL2 antibody and provides renewed promise for anti‐fibrotic therapeutic strategies” (Clinical and Translational Medicine, 2021)
